The source of these data is patent publication US7906533B2, “Nicotinamide pyridinureas as vascular endothelial growth factor (VEGF) receptor kinase inhibitors” (Bayer Schering Pharma AG, priority 2004, dated 2011).

One data set has as its target T1, KDR-Kinase (VEGFR-2) (Homo sapiens, UniProt P35968).
T1 construct: GST-kinase domain fusion construct of the KDR kinase; GST
Nature of the data set: KDR Kinase Inhibition. The class given is biochemical. The settings on record: GST-kinase domain fusion construct of the KDR kinase; poly(Glu4Tyr) substrate, 32P-γATP. As to the method:
Kinase activity was measured with a GST-kinase domain fusion construct of the KDR kinase according to the following protocol to obtain concentration response curves. Components were added into a microtiterplate in the following sequence: 10 μl of inhibitor in threefold final concentration [3% DMSO in buffer (40 mM Tris Cl pH 7.5; 1 mM DTT, 1 mM MnCl2, 10 mM MgCl2, 2.5 Promille Polyethyleneglycol 20000)] and 10 μl of substrate mixture [24 μM ATP, 24 μg/ml poly(Glu4Tyr) in buffer, specific activity approx. 500 cpm/pmol ^32P-γATP]. Reaction was started by adding 10 μl of enzyme preparation diluted appropriately in buffer that contains 10 μM vanadate. After incubation for exactly 10 min the reaction was stopped by adding of 10 μl stop solution (250 mM EDTA). 10 μl of the reaction mixture were transferred to phosphocellulose filters. The filters were washed in 0.1% phosphoric acid, dried before meltilex scintillator was applied (Wallac, Perkin-Elmer) and the radioactivity was counted.

Data set [1] concerns the target T2, human Cytochrome P 450 isoenzyme 2C9 (Homo sapiens, UniProt P11712).
T2 construct: host or cells: baculovirus/insect cells
Description: Cytochrome P450 Inhibition (2C9). Format: in vitro ADME. Conditions: baculovirus/insect cell-expressed human isoenzyme; read-out: IC50 CYP 2C9. As to the method: (§1) The Cytochrome P450 isoenzyme inhibition was performed according to the publication of Crespi et al. (Anal. Biochem., 1997, 248, 188-190) with use of the baculovirus/insect cell-expressed, human Cytochrome P 450 isoenzymes (2C9 and 2C19).

Data set [2] has as its target T3, human Cytochrome P 450 isoenzyme 2C19 (Homo sapiens, UniProt P33261).
T3 construct: host or cells: baculovirus/insect cells
Nature of the data set: Cytochrome P450 Inhibition (2C19). The class given is in vitro ADME. Conditions: baculovirus/insect cell-expressed human isoenzyme; read-out: IC50 CYP 2C19. As to the method:
as §1

T1 sequence (P35968 834-1162 limits assumed, species assumed): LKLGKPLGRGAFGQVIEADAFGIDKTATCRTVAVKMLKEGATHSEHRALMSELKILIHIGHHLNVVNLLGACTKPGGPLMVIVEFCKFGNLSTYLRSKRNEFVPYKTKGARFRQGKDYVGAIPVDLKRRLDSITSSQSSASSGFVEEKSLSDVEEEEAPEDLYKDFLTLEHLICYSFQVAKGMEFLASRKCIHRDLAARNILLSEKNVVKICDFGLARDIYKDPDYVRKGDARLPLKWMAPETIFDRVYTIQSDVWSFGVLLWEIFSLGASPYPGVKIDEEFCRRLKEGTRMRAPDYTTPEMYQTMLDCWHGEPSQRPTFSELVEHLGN
T3 sequence (P33261 whole entry): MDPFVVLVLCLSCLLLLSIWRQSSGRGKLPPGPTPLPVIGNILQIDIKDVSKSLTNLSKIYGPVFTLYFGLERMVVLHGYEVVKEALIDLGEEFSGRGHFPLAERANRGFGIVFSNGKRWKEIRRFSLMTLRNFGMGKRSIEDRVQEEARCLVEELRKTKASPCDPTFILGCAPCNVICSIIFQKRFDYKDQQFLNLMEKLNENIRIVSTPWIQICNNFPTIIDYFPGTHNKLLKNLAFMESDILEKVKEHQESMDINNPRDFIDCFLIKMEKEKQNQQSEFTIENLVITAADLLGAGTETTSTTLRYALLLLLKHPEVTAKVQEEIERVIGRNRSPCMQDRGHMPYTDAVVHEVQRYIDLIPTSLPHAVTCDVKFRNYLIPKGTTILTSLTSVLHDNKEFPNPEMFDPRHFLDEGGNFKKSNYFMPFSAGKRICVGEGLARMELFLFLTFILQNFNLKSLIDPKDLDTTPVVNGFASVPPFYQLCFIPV
T2 sequence (P11712 whole entry): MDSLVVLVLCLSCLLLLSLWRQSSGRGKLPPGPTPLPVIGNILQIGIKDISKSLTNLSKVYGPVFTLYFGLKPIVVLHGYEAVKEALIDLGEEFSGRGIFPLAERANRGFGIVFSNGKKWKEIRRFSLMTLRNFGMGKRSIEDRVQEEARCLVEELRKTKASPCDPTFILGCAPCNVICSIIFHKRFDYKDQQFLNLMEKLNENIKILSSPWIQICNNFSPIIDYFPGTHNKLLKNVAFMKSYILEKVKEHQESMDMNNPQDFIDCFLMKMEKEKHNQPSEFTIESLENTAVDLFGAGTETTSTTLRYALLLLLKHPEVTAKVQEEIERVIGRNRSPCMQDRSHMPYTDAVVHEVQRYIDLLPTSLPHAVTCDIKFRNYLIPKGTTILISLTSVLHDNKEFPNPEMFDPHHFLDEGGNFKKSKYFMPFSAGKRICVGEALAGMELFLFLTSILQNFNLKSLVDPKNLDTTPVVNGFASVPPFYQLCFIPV

Regarding `CNC(=O)Nc1cc(CNc2ncccc2C(=O)Nc2ccc3cn(C)nc3c2)ccn1` [Example 1.0, N-(2-methyl-2H-indazol-6-yl)-2-{[2-(3-methyl-ureido)-pyridin-4-ylmethyl]-amino}-nicotinamide], the melting point lay in the range of 205 to 207 °C. For the same molecule, on KDR-Kinase (VEGFR-2), the IC50 is 0.01 µM. For the same molecule, in data set [1], the IC50 stood at 11.7 µM. For the same molecule, the IC50 in data set [2] is over 30 µM.
Turning to `CNC(=O)Nc1cc(CNc2ncccc2C(=O)Nc2cccc(C(F)(F)F)c2)ccn1` [Example 1.1, 2-{[2-(3-methyl-ureido)-pyridin-4-ylmethyl]-amino}-N-(3-trifluoromethyl-phenyl)-nicotinamide], the melting point was 206 to 207 °C.
The same measure, in the same setting: the figure for `CNC(=O)Nc1cc(CNc2ncccc2C(=O)Nc2ccc3cnn(C)c3c2)ccn1` [Example 1.2, N-(1-methyl-1H-indazol-6-yl)-2-{[2-(3-methyl-ureido)-pyridin-4-ylmethyl]-amino}-nicotinamide] is 228 to 229 °C; for `CNC(=O)Nc1cc(CNc2ncccc2C(=O)Nc2cc3ccccc3cn2)ccn1` [Example 1.3, N-isoquinolin-3-yl-2-{[2-(3-methyl-ureido)-pyridin-4-ylmethyl]-amino}-nicotinamide] it is 191 to 192 °C.
Consider `CNC(=O)Nc1cc(CNc2ncccc2C(=O)Nc2ccc3c(cnn3C)c2)ccn1` [Example 1.4, N-(1-methyl-1H-indazol-5-yl)-2-{[2-(3-methyl-ureido)-pyridin-4-ylmethyl]-amino}-nicotinamide], for which the melting point lay in the range of 219 to 220 °C.
Take `Cn1cc2ccc(NC(=O)c3cccnc3NCc3ccnc(NC(=O)N4CCOCC4)c3)cc2n1` [Example 2.0, morpholine-4-carboxylic acid (4-{[3-(2-methyl-2H-indazol-6-ylcarbamoyl)-pyridin-2-ylamino]-methyl}-pyridin-2-yl)-amide]: the values for the IC50 (against KDR-Kinase (VEGFR-2); in data set [1]; in data set [2]) were 0.029 µM, over 30 µM and over 30 µM, respectively.
